Source: patent US20040033252A1, “Agents for recoverying from or preventing fatigue in the central nerve system and foods for recovering from or preventing fatigue” (priority 2000, published 2004)

Columns and labels:
[1] = tested on: tryptophan-deficient rats; test: Treadmill running test to exhaustion in tryptophan-deficient rats (Evaluation Test 2); type: in vivo, rat; conditions: i.p. 1 h before running, BCH 150 mg/kg, BCAA 250 mg/kg, mean ± standard error
Text: Three-week-old female rats of Sprague-Dawley-type (each rat: 50 g) were raised for one month to a weight of 200 g [fed with normal food of AIN93G for one month (standard refined feed, made by Oriental Yeast, Co., Ltd., with the tryptophan being contained at 2.3 g/kg)], and from this time on, these were fed with the tryptophan-deficient food (adjusted feed in which only the tryptophan was removed from the above-mentioned AIN93G, with corn starch being used for compensating for the corresponding portion) for 16 days to form the tryptophan-deficient rats. Amino acids, contained in the normal food AIN93G, were respectively manufactured by AJINOMOTO CO., INC., and the respective contents (g) in 1 kg of feed were: alanine 5.6, arginine 6.8, aspartic acid 13.1, cystine 3.9, glutamic acid 39.6, glycine 3.4, histidine 5.6, isoleucine 10.1, leucine 17.5, lysine 14.9, methionine 5.6, phenyl alanine 9.5, proline 21.6, serine 9.7, threonine 7.7, tryptophan 2.3 (only contained in the tryptophan-containing food), tyrosine 10.4, and valine 12.6 (each of the amino acids having a purity of 100%). […] After the training had been completed, the rats were subjected to running loads on the treadmill at a speed of 20 m/min (inclination: 7%) up to exhaustion, and the running time was evaluated as the fatigue tests shown below. […]

[2] = tested on: analbuminemia rats; test: Treadmill running test to exhaustion in analbuminemia rats (fatigue test); type: in vivo, rat; conditions: NAR; for Running time up to exhaustion: i.p., BCH 8 mg/kg and BCAA 250 mg/kg 1 h before running, albumin 1 g/kg 1.5 h before, mean ± SEM
Procedure: Three-week-old female analbuminemia rats (Japan SLC) that genetically lacked albumin in their blood plasma, which had been raised under light and dark cycles of 7:00 to 19:00 (light cycle) at room temperature 22° C., were subjected to the fatigue tests. Prior to the fatigue tests, the analbuminemia rats were subjected to training (20 m/min, 7% inclination) for 30 minutes, four times a week, during a predetermined period of time in 13:00 to 15:00, and this training lasted for four weeks so as to adapt them to running on the treadmill. After the training had been completed, all the analbuminemia rats (weight 210 to 255 g) were subjected to exhaustion tests on the treadmill under the same conditions, and time up to an exhaustion state was measured.
The rats, which were divided into four groups, were respectively treated with physiological saline (made by Otsuka Pharmaceutical Co., Ltd “0.9% physiological saline”), the BCH (made by Sigma K.K., NoA7902), the BCAA and albumin (made by Sigma K.K. A-6272 (Fraction V)). The dose of physiological saline was set to 5 ml/kg, that of the BCH was 8 mg/kg and that of the BCAA was 250 mg/kg, and these were given into the abdominal cavity one hour prior to the start of the running tests. Here, BCH, BCAA and albumin were respectively dissolved in physiological saline, and then administered. The dose of albumin was set to 1 g/kg, and given into the abdominal cavity one and half hours prior to the start of […]. […] These doses were determined so as to obtain sufficient effects, and in the case of actual doses to the human being, these can be changed appropriately depending on various factors.
(§1) These measured data were obtained by a analysis of variance (ANOVA) in one-way layout of Fisher's PLSD test by using multiple comparisons and repeated measurements, based upon the standard error. Next, the data were classified based upon running times, and analyzed by the Student's t-test based upon observation with paired t-test in the total effects of the BCAA and BCH treatment groups.

[3] = tested on: tryptophan-deficient rats; test: Treadmill running test to exhaustion in tryptophan-deficient rats given tryptophan-added food (Evaluation Test 3); type: in vivo, rat
Text: Three-week-old female rats of Sprague-Dawley-type (each rat: 50 g) were raised for one month to a weight of 200 g [fed with normal food of AIN93G for one month (standard refined feed, made by Oriental Yeast, Co., Ltd., with the tryptophan being contained at 2.3 g/kg)], and from this time on, these were fed with the tryptophan-deficient food (adjusted feed in which only the tryptophan was removed from the above-mentioned AIN93G, with corn starch being used for compensating for the corresponding portion) for 16 days to form the tryptophan-deficient rats. Amino acids, contained in the normal food AIN93G, were respectively manufactured by AJINOMOTO CO., INC., and the respective contents (g) in 1 kg of feed were: alanine 5.6, arginine 6.8, aspartic acid 13.1, cystine 3.9, glutamic acid 39.6, glycine 3.4, histidine 5.6, isoleucine 10.1, leucine 17.5, lysine 14.9, methionine 5.6, phenyl alanine 9.5, proline 21.6, serine 9.7, threonine 7.7, tryptophan 2.3 (only contained in the tryptophan-containing food), tyrosine 10.4, and valine 12.6 (each of the amino acids having a purity of 100%). These rats were subjected to training for 30 minutes at a speed of 20 m/min (inclination: 7%) by treadmill running practice, three times a week, which started at the age of 3 weeks old, and lasted for 2 months. After the training had been completed, the rats were subjected to running loads on the treadmill at a speed of 20 m/min (inclination: 7%) up to exhaustion, and the running time was evaluated as the fatigue tests shown below. […] The evaluation was made by using inter-group comparisons (with paired t-test) of a Student's t-test.
To the tryptophan-deficient rats that had been subjected to the above-mentioned training were respectively given tryptophan-added food (AIN93G to which 2.3 g/kg of the tryptophan was added), and were then given physiological saline, a mixture of the BCH and the BCAA, the BCH and the BCAA, and comparison tests were carried out among the four groups. […]

[4] = tested on: striatal synaptosome of analbuminemia rats; test: Tryptophan and metabolites in striatal synaptosome immediately after exhaustion (HPLC, electrochemical detector); type: in vivo, rat; conditions: for Concentration of 5-HIAA in striatal synaptosome / Concentration of 5-HT in striatal synaptosome / Concentration of 5-HTP in striatal synaptosome / Concentration of tryptophan in striatal synaptosome: NAR, immediately after exhaustion, mean ± SEM
Procedure: The head of each of the rats was sacrificed by decapitation immediately after the training so that the striatal synaptosome was separated, and tryptophan(Trp), 5-hydroxytryptophan (5-HTP), 5-hydroxytryptamin (5-HT) and 5-hydroxyindoleacetic acid (5-HIAA) were measured by high-performance liquid chromatography using an electrochemical detector. Moreover, the protein level in the P2 fraction was measured in accordance with the method of Lowry et al. (J. Protein measurements with the Folin phenol reagent, J. Biol. Chem. 193: 265-275; 1951).
as §1

[5] = tested on: rats; conditions: tryptophan 1 mM/30 min continuously injected into the brain; cited from earlier work

| Compound | Running time up to exhaustion [1] | Extension of running time relative to physiological saline ([2]; from Table 1) | Running time up to exhaustion [2] | Running time of single rats that have not reached exhaustion ([3]; BCH only-administration, two cases) | Running time up to exhaustion ([3]; tryptophan-deficient rats given tryptophan-added food, doses as in evaluation test 2, i.p. 1 h before, mean ± standard error, values >542 set as 542) | Running-time difference versus physiological saline group (average-value comparison) ([3]; tryptophan-deficient rats given tryptophan-containing food, not statistically significant) | Change in uptake of 5-HTP into striatal synaptosome versus physiological saline group ([4]; BCAA and BCH treated groups totaled, group B (time to exhaustion 190 to 271 minutes), p<0.025) | Change in uptake of tryptophan into striatal synaptosome versus physiological saline group ([4]; BCAA and BCH treated groups totaled, group B (time to exhaustion 190 to 271 minutes), p<0.05) | Concentration of 5-HIAA in striatal synaptosome [4] | Concentration of 5-HT in striatal synaptosome [4] | Concentration of 5-HTP in striatal synaptosome [4] | Concentration of tryptophan in striatal synaptosome [4] | Onset of fatigue in the central nervous system or muscles [5] |
| --- | --- | --- | --- | --- | --- | --- | --- | --- | --- | --- | --- | --- | --- |
| NC1(C(=O)O)CC2CCC1C2 (stereo not drawn) [BCH, 2-aminobicyclo-[2,2,1]-heptane-2-carboxylic acid] | 308 ± 22 min | approximately twice as long | 188 ± 33 min | 524 minutes and not less than 524 minutes | 428 ± 45 min | approximately 40 minutes | −23% | −19% | 3.58 ± 0.21 pmol/mg protein | 5.20 ± 0.79 pmol/mg protein | 1.25 ± 0.17 pmol/mg protein | 53.43 ± 10.50 pmol/mg protein | – |
| N[C@@H](Cc1c[nH]c2ccccc12)C(=O)O [tryptophan] | – | – | – | – | – | – | – | – | – | – | – | – | exhibit the fatigue in the central nervous system or muscles in very early stage |
| Albumin: albumin made by Sigma K.K. A-6272 (Fraction V) | – | – | 96 ± 22 min | – | – | – | – | – | 3.30 ± 0.06 pmol/mg protein | 5.00 ± 0.47 pmol/mg protein | 1.45 ± 0.18 pmol/mg protein | 52.41 ± 8.97 pmol/mg protein | – |
